{"source": "paper PMC10618743", "about": "(Cancer Discovery, 2023)", "key": {"[1]": {"tested_on": "pAKT (S473) in HCC1954 cells", "assay": "pAKT (S473) HTRF", "assay_type": "cell-based", "details": "Homo sapiens; HCC1954, H1047R; 1 hour; read-out: pAKT HTRF GMean IC50 (95% CI)", "description": "(§1) A 384-well phospho-AKT (S473) HTRF (Homogenous Time-Resolve Fluorescence; PerkinElmer, #64AKSPEH) assay was used for target engagement. Each well was seeded with cell numbers indicated in Supplementary Table S3 in a volume of 12.5 μL in complete, phenol red-free media and then treated for 1 hour at 37°C with 5% CO2 before reading on a PHERAstar plate reader."}, "[2]": {"tested_on": "pAKT (S473) in CAL33 cells", "assay": "pAKT (S473) HTRF", "assay_type": "cell-based", "details": "Homo sapiens, CAL-33; CAL33, H1047R; 1 hour; read-out: pAKT HTRF GMean IC50 (95% CI)", "description": "as §1"}, "[3]": {"tested_on": "GP2d colon cancer xenograft", "assay": "GP2d xenograft efficacy study", "assay_type": "in vivo, mouse"}, "[4]": {"tested_on": "glucose oxidation in tumor and skeletal muscle", "assay": "[U-13C]-glucose metabolic profiling in CAL-33 tumor-bearing mice", "assay_type": "in vivo, mouse", "details": "alpelisib 50 mg/kg; 30 minutes after [U-13C]-glucose"}, "[5]": {"tested_on": "pAKT (S473) in panel of human tumor cell lines harboring PI3Kα kinase-domain mutations and SKBR3", "assay": "pAKT (S473) HTRF, human tumor cell line panel", "assay_type": "cell-based", "details": "SK-BR-3, 1 hour treatment, read-out: pAKT IC50 values across the panel of cell lines", "description": "as §1"}, "EFM19 cells": {"tested_on": "EFM19 cells", "assay": "Cell viability CellTiter-Glo", "assay_type": "cell-based", "details": "Homo sapiens, EFM-19; EFM19, H1047L; 72 hours; read-out: CTGlo GMean GI50 (95% CI)", "description": "(§2) Cell viability was measured using CellTiter-Glo (Promega, #G9243). Indicated cell lines were seeded according to Supplementary Table S3 in 50 μL of media in 384-well plates, with 72 hours of treatment at 37°C with 5% CO2."}, "CAL33 cells": {"tested_on": "CAL33 cells", "assay": "Cell viability CellTiter-Glo", "assay_type": "cell-based", "details": "Homo sapiens, CAL-33; CAL33, H1047R; 72 hours; read-out: CTGlo GMean GI50 (95% CI)", "description": "as §2"}, "NCIH1048 cells": {"tested_on": "NCIH1048 cells", "assay": "Cell viability CellTiter-Glo", "assay_type": "cell-based", "details": "Homo sapiens, NCI-H1048; NCIH1048, H1047R + K111R; 72 hours; read-out: CTGlo GMean GI50 (95% CI)", "description": "as §2"}, "T47D cells": {"tested_on": "T47D cells", "assay": "Cell viability CellTiter-Glo", "assay_type": "cell-based", "details": "Homo sapiens, H1047R, 72 hours, read-out: CTGlo GMean GI50 (95% CI)", "description": "as §2"}, "SKBR3 cells": {"tested_on": "SKBR3 cells", "assay": "Cell viability CellTiter-Glo", "assay_type": "cell-based", "details": "Homo sapiens, SK-BR-3; SKBR3, WT PI3Kα; 72 hours; read-out: CTGlo GMean GI50 (95% CI)", "description": "as §2"}, "OAW42 cells": {"tested_on": "OAW42 cells", "assay": "Cell viability CellTiter-Glo", "assay_type": "cell-based", "details": "Homo sapiens, OAW-42; OAW42, H1047L; 72 hours; read-out: CTGlo GMean GI50 (95% CI)", "description": "as §2"}, "CAL148 cells": {"tested_on": "CAL148 cells", "assay": "Cell viability CellTiter-Glo", "assay_type": "cell-based", "details": "Homo sapiens, CAL-148; CAL148, H1047R + D350N; 72 hours; read-out: CTGlo GMean GI50 (95% CI)", "description": "as §2"}, "BT20 cells": {"tested_on": "BT20 cells", "assay": "Cell viability CellTiter-Glo", "assay_type": "cell-based", "details": "Homo sapiens, BT-20; BT20, H1047R + P539R; 72 hours; read-out: CTGlo GMean GI50 (95% CI)", "description": "as §2"}, "DETROIT562 cells": {"tested_on": "DETROIT562 cells", "assay": "Cell viability CellTiter-Glo", "assay_type": "cell-based", "details": "Homo sapiens, Detroit 562; DETROIT562, H1047R; 72 hours; read-out: CTGlo GMean GI50 (95% CI)", "description": "as §2"}, "GP2D cells": {"tested_on": "GP2D cells", "assay": "Cell viability CellTiter-Glo", "assay_type": "cell-based", "details": "Homo sapiens, H1047L, 72 hours, read-out: CTGlo GMean GI50 (95% CI)", "description": "as §2"}, "HCC1954 cells": {"tested_on": "HCC1954 cells", "assay": "Cell viability CellTiter-Glo", "assay_type": "cell-based", "details": "Homo sapiens; HCC1954, H1047R; 72 hours; read-out: CTGlo GMean GI50 (95% CI)", "description": "as §2"}, "[6]": {"tested_on": "Detroit 562 HNSCC xenograft", "assay": "Detroit 562 xenograft efficacy study", "assay_type": "in vivo, mouse"}, "[7]": {"tested_on": "PI3Kα-mutant, ER+HER2- metastatic breast cancer", "details": "alpelisib in combination with fulvestrant, median follow-up 20 months; cited from earlier work"}, "[8]": {"tested_on": "insulin-mediated glucose uptake in primary human subcutaneous adipocytes", "assay": "Human adipocyte 3H-2-deoxyglucose uptake", "assay_type": "cell-based", "description": "Primary human subcutaneous adipocytes were treated with a test compound or vehicle for 1 hour followed by the addition of 10 nmol/L insulin and ^3H-2-deoxyglucose (Zen Bio Durham, assay #CA-25, Lot #SL0071). Cytochalasin B treatment controlled for nonspecific glucose uptake. Corrected counts per minute were determined using a scintillation counter."}, "[9]": {"tested_on": "CAL-33 (H1047R PI3Kα) HNSCC xenograft", "assay": "CAL-33 xenograft efficacy study", "assay_type": "in vivo, mouse", "details": "Alpelisib 50 mg/kg QD, Day 28"}, "Plasma exposure in mice": {"assay": "Plasma exposure in mice", "assay_type": "in vivo, mouse"}, "[10]": {"assay": "Tolerability measures in CDX studies: body weight and insulin 1 hour after dose", "details": "for Δ Insulin: Alpelisib 50 mg/kg QD, one-hour post dose"}, "[11]": {"details": "patients; cited from earlier work"}, "[12]": {"details": "cited from earlier work"}, "[13]": {"tested_on": "T47D ER+HER2- breast cancer xenograft", "assay": "T47D xenograft efficacy study", "assay_type": "in vivo, mouse", "details": "Alpelisib 50 mg/kg QD, Day 20"}, "[14]": {"details": "STX-478 100 mg/kg q.d., alpelisib 50 mg/kg q.d."}}}
{"smiles": "Cc1nc(NC(=O)N2CCC[C@H]2C(N)=O)sc1-c1ccnc(C(C)(C)C(F)(F)F)c1", "note": "[alpelisib]", "values": [{"measurement": "IC50", "setting": "[1]", "result": 256, "unit": "nM"}, {"measurement": "IC50", "setting": "[2]", "result": 71, "unit": "nM"}, {"measurement": "TGI (%)", "setting": "[3]; Alpelisib 50 mg/kg QD, Day 28", "result": 79, "unit": "%"}, {"measurement": "tumor regressions (waterfall plot)", "setting": "[3]; [14]", "result": "no regression"}, {"measurement": "glucose oxidation in skeletal muscle", "setting": "[4]", "result": "reductions in glucose oxidation in the skeletal muscle"}, {"measurement": "IC50", "setting": "[5]", "result": "28 to 268", "unit": "nM"}, {"measurement": "GI50", "setting": "EFM19 cells", "result": 127, "unit": "nM"}, {"measurement": "GI50", "setting": "CAL33 cells", "result": 340, "unit": "nM"}, {"measurement": "GI50", "setting": "NCIH1048 cells", "result": 67, "unit": "nM"}, {"measurement": "GI50", "setting": "T47D cells", "result": 334, "unit": "nM"}, {"measurement": "GI50", "setting": "SKBR3 cells", "result": 335, "unit": "nM"}, {"measurement": "GI50", "setting": "OAW42 cells", "result": 601, "unit": "nM"}, {"measurement": "GI50", "setting": "CAL148 cells", "result": 962, "unit": "nM"}, {"measurement": "GI50", "setting": "BT20 cells", "result": 516, "unit": "nM"}, {"measurement": "GI50", "setting": "DETROIT562 cells", "result": 436, "unit": "nM"}, {"measurement": "GI50", "setting": "GP2D cells", "result": 298, "unit": "nM"}, {"measurement": "GI50", "setting": "HCC1954 cells", "result": 384, "unit": "nM"}, {"measurement": "TGI (%)", "setting": "[6]; Alpelisib 50 mg/kg QD, Day 22", "result": 96, "unit": "%"}, {"measurement": "tumor regressions", "setting": "[6]; [14]", "result": "tumor regressions in five of the nine study animals"}, {"measurement": "progression-free survival time", "setting": "[7]", "result": 11.0, "unit": "months"}, {"measurement": "glucose uptake inhibition", "setting": "[8]; 10 μmol/L", "result": "nearly complete inhibition"}, {"measurement": "Emax", "setting": "[8]; Homo sapiens, Adipocyte, 10 nmol/L insulin, read-out: maximum effect (Emax) for glucose uptake inhibition", "result": 88, "unit": "%"}, {"measurement": "TGI (%)", "setting": "[9]", "result": 79, "unit": "%"}, {"measurement": "mouse exposure over exposure of maximum approved human dose", "setting": "Plasma exposure in mice; 50 mg/kg q.d. in mice", "result": "approximately 2 fold"}, {"measurement": "AUC", "setting": "Plasma exposure in mice; mouse, plasma, oral, mice, 50 mg/kg q.d.", "result": "~75000", "unit": "ng·h/mL"}, {"measurement": "Δ Insulin", "setting": "[10]; Cal33 model", "result": "+1.07 ng/mL"}, {"measurement": "Δ Insulin", "setting": "[10]; Detroit 562 model", "result": "+2.33 ng/mL"}, {"measurement": "Δ Insulin", "setting": "[10]; GP2D model", "result": "+1.59 ng/mL"}, {"measurement": "Δ Insulin", "setting": "[10]; HCC1954 model", "result": "+2.38 ng/mL"}, {"measurement": "Δ Insulin", "setting": "[10]; NCI-H1048 model", "result": "+1.21 ng/mL"}, {"measurement": "effects on body weight across studies", "setting": "[10]; [14]", "result": "No treatment-specific effects on body weight"}, {"measurement": "Δ Insulin", "setting": "[10]; T-47D model", "result": "+0.79 ng/mL"}, {"measurement": "rate of permanent discontinuations", "setting": "[11]", "result": "≤ 46", "unit": "%"}, {"measurement": "rate of safety-related dose reduction", "setting": "[11]", "result": "up to 42%"}, {"measurement": "exposure of the maximum approved human dose (AUC)", "setting": "[12]", "result": "~33,000 ng*h/mL"}, {"measurement": "TGI (%)", "setting": "[13]", "result": 100, "unit": "%"}]}
